The values that follow come from US8278265B2, “Methods, kits and compositions comprising crotamine” (Fundacao de Amparo a Pesquisa do Estado de Sao Paulo—FAPESP, priority 2005, dated 2012).

One assay concerns B16F10 cells. Put plainly: Tumor treatment with natural crotamine. It counts as in vivo, Balb/c mouse. As to the method: The cells were maintained in Dulbecco's modified Eagle's cell culture medium (DMEM; Invitrogen, Carlsbad, Calif.) supplemented with 15% fetal calf serum (FCS; Invitrogen). The cells were kept at 37° C. with humidity and 5% CO2. After preparing a cell suspension with about 5×10^6 cells/ml of PBS [phosphate buffered solution], approximately 0.2 ml of this suspension was subcutaneously or endovenously (retroorbital injection) injected into each Balb/c mouse, of 4 to 6 weeks-old with body weight between 16 to 20 g. For negative control, the animals were injected with 0.2 ml of PBS. Before setting up the experiments, the animals were kept under 12 hour light-dark cycle, and were allowed to have water and food ad libitum. All animals were caged and handled under ethical conditions according to international rules of animal care, stated by the International Animal Welfare Recommendations, and in accordance with the Guidelines for the Use of Animals in Biochemical Research
30 minutes after endogenous injection of B16F10 cells, as described above, the animals were treated with 1 μg of crotamine/animal by daily subcutaneous injection, during 21 days.

In assay [1] the test system is human limfoblastoids, B16 murine melanoma cells, HCT116 colon cancer cells, human mesenchymal stem cells from bone marrow and dental pulp. The assay is described as follows: In vitro transfection with crotamine-DNA aggregates. It counts as cell-based.
The next assay concerns plasmid DNA. The assay is described as follows: Peptide-DNA interaction by circular dichroism. It counts as binding. Conditions: molar ratio 200:1 and 1:1 (crotamine:DNA), absence and presence of 150 mM NaCl. The method, then:
Circular dichroism spectra were taken in a spectropolarymeter JASCO 810 with a Peltier system for temperature control. The device is regularly calibrated with recrystallized d-10 camphorsulfonic acid. Standards used for the equipment were: wavelength range 190-260 nm; sensitivity 100 mdeg; resolution 0.5 nm; response 8 s; reading speed 50 nm/min; 8 accumulations; temperature 37° C. Samples were analysed in a 1 mm optical path cell in 10 mM sodium phosphate buffer, pH 7.4, in the presence or absence of 150 mM NaCl. The crotamine concentration used was 20 μM and plasmid DNA concentration was 0.1 μM. […]
(CD spectra are sensitive to the conformation of chiral molecules.)

The subject of assay [2] is linear and/or circular double strand DNA. Put plainly: DNA-peptide interaction by agarose gel electrophoresis (gel shift assay). The assay is classed as binding. Conditions: various molar proportions, FIG. 6. As to the method: The interaction between crotamine and DNA was analysed by an interference assay for DNA migration in agarose gel. 1 μg DNA and an increasing concentration of crotamine was added in a total volume of 25 μl, containing 150 mM NaCl. Twenty minutes after the mixture was prepared, samples were analysed by agarose gel electrophoresis (1%), using Tris-borate-EDTA buffer, followed by visualization by staining the nucleic acid with the ethidium bromide.
The formation of the complex between the peptide and DNA was analysed by the electrophoretic mobility of the complex in agarose gel (1%, w/v) by varying the molar proportions between the peptide and the double-strand DNA. Tests were made by mixing plasmid DNA (2 or 4 μg) with 10 μg of pure crotamine, in the presence or absence of 150 mM NaCl, which were applied on agarose gel immersed in Tris borate-EDTA buffer. DNA was then observed after staining with ethidium bromide and using UV light transiluminator. Gel documentation after electrophoresis was made by using an image digitizer (model FLA3000). This system of electrophoresis allows to observe changes in the migration pattern (migration delay) due to the neutralization of nucleic acid by cationic peptide present and/or due to the formation of larger complexes between crotamine and DNA (FIG. 6). […]
A general note: In EMSA bound probe runs differently from free probe, usually more slowly.

Consider “YKQCHKKGGHCFPKEKICLPPSSDFGKMDCRWRWK CCKKGSG (YKQCHKKGGHCFPKEKICLPPSSDFGKMDCRWRWKCCKKGSG; UniProt Q9PWF3 23-64, looked up) [crotamine]”, for which the “tumor positive animals, 18th day” value in the assay on B16F10 cells (1 μg/animal daily s.c., day 18) is 3. Besides, the “tumor positive animals, 20th day” value with B16F10 cells (1 μg/animal daily s.c., day 20) came to 2. The “Total positive animals up to 21th day” value in the assay with B16F10 cells (1 μg/animal daily s.c., days 10-21) is given as 5 posit. Besides, the “effect on tumor formation compared to the control group” value in the assay on B16F10 cells (1 μg/animal daily subcutaneous injection, 21 days) is “delay or even inhibited the tumor formation”. In addition, in the assay with B16F10 cells (observation after end of treatment, day 25), the “tumor positive animals, 25th day” value stood at 9. Moreover, the “tumor positive animals, 29th day” value with B16F10 cells (observation after end of treatment, day 29) was 9. Also, in the assay on B16F10 cells (observation after end of treatment, day 35), the “tumor positive animals, 35th day” value was 12. In the assay on B16F10 cells (observation after end of treatment, day 48), the “tumor positive animals, 48th day” value was determined as 12. Besides, the ratio of positives in the assay with B16F10 cells (up to day 21) was 0.33. In addition, the “result of in vitro transfection” value in assay [1] is given as “positive results”. Besides, in the assay on plasmid DNA, the “interaction with plasmid DNA by circular dichroism spectra” value is “presence of interaction”. Further, the “effect of complex formation on electrophoretic mobility in agarose gel” value in assay [2] was “interfere in the electrophoretic mobility”.
